The values that follow come from patent US12570655B2, “Cysteine covalent modifiers of AKT1 and uses thereof” (Terremoto Biosciences, Inc., priority 2023, dated 2026).

Like-named read-outs stand apart in the source and are kept apart here.

Common to all, as to type: cell-based
For experiment [1], the target named is T1, AKT1 E17K (Homo sapiens, UniProt P31749, E17K).
T1 construct: expressed in transfected cells; host or cells: HEK293
Description: Live cell AKT1 E17K target engagement by NanoBRET competitive probe displacement. As to conditions: HEK293 cells transfected with kinase-NanoLuciferase fusion, 2 h at 37° C. Put shortly:
(§1)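 Live-cell competitive tracer displacement in HEK293 expressing NanoLuciferase-tagged kinase. Compound and ATP-competitive tracer (~EC50) are co-incubated 2 h at 37 °C; BRET (E600/E460) gives IC50.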
(Bioluminescence resonance energy transfer reports proximity on the nanometre scale.)

Experiment [2] has as its target T2, AKT2 (Homo sapiens, UniProt P31751).
T2 construct: expressed in transfected cells; host or cells: HEK293
Description: Live cell AKT2 target engagement by NanoBRET competitive probe displacement. Conditions: HEK293 cells transfected with kinase-NanoLuciferase fusion, 2 h at 37° C. Put shortly: as §1

In experiment [3] the target is T3, AKT1 WT (Homo sapiens, UniProt P31749).
T3 construct: expressed in transfected cells; host or cells: HEK293
Description: Live cell AKT1 WT target engagement by NanoBRET competitive probe displacement. Conditions: HEK293 cells transfected with kinase-NanoLuciferase fusion, 2 h at 37° C. Put shortly:
as §1

For experiment [4], the system named is LAPC4 prostate cancer cells. Nature of the experiment: Antiproliferative effects in LAPC4 cells (CellTiter Glo). As to conditions: LAPC4 cells (AKT1 E17K allele), read-out: LAPC4 proliferation IC50. Summed up: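 Cells grown in IMDM supplemented with 12% FBS plus 1% P/S were treated for 72 h with DMSO-dissolved compounds. ATP-based luminescence was fitted to a log(inhibitor) versus response Hill model, giving IC50.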

T3 sequence (P31749 whole entry): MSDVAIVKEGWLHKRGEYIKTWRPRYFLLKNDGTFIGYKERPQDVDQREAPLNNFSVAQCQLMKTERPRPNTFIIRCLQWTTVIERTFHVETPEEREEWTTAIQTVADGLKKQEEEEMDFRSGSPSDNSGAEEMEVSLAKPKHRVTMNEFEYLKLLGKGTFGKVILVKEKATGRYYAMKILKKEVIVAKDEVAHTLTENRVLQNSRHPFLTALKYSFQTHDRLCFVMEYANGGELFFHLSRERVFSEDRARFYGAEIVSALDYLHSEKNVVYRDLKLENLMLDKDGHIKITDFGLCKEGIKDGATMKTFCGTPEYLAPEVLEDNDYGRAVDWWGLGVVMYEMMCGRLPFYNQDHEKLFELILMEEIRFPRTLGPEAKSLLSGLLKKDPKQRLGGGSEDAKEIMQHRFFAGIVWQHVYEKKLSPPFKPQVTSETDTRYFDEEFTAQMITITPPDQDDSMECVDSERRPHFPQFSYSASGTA
T1 sequence (P31749 whole entry E17K): as the sequence (P31749 whole entry) above, with E17K counted along it
T2 sequence (P31751 whole entry): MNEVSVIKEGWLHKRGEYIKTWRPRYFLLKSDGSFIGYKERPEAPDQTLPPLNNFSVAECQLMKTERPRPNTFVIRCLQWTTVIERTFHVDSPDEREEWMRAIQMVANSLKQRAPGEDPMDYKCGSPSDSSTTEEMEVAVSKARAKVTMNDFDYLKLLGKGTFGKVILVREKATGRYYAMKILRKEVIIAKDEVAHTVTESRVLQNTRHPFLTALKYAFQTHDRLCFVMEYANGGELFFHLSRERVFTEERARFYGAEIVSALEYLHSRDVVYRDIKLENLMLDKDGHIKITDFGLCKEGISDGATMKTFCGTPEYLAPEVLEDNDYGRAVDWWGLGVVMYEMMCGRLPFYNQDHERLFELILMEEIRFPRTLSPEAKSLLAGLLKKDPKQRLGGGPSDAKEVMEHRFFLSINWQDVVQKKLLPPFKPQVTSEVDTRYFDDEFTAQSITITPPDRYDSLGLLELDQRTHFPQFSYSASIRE

As for `C=CC(=O)N1CC(N[C@H]2CCc3cc(-n4c(-c5cccnc5N)nc5ccc(-n6cccn6)nc54)ccc32)C1` [Example 28, (S)-1-(3-((5-(2-(2-aminopyridin-3-yl)-5-(1H-pyrazol-1-yl)-3H-imidazo[4,5-b]pyridin-3-yl)-2,3-dihydro-1H-inden-1-yl)amino)azetidin-1-yl)prop-2-en-1-one], the IC50 was found to be 81.6 nM in experiment [1]; 250 nM in experiment [2]; 50.1 nM in experiment [3]; 216 nM in experiment [4] (Homo sapiens, LAPC4, 72 h).

As for `C=C1CCN(c2ccccc2C(=O)N[C@H]2CCc3cc(-n4c(-c5cccnc5N)nc5ccc(-n6cccn6)nc54)ccc32)C1=O` [Example 42, (S)-N-(5-(2-(2-aminopyridin-3-yl)-5-(1H-pyrazol-1-yl)-3H-imidazo[4,5-b]pyridin-3-yl)-2,3-dihydro-1H-inden-1-yl)-2-(3-methylene-2-oxopyrrolidin-1-yl)benzamide], the IC50 stood at 897 nM in experiment [1]; 252 nM in experiment [2]; 289 nM in experiment [3]; 3650 nM in experiment [4] (Homo sapiens, LAPC4, 72 h).

Consider `C=CC(=O)N1C[C@H]2C[C@@H]1CC2N[C@H]1CCc2cc(-n3c(-c4cccnc4N)nc4ccc(-n5cccn5)nc43)ccc21` (single isomer, unassigned) [Example 138, 1-[(1R,4R,5*)-5-{[(1S)-5-[2-(2-aminopyridin-3-yl)-5-(pyrazol-1-yl)imidazo[4,5-b]pyridin-3-yl]-2,3-dihydro-1H-inden-1-yl]amino}-2-azabicyclo[2.2.1]heptan-2-yl]prop-2-en-1-one], for which the IC50 in experiment [1] turned out to be 744 nM; in experiment [2], 1810 nM; in experiment [3] it was 289 nM; in experiment [4] (72 h), 963 nM.

On to `C=CC(=O)N1CCC(N[C@@H]2c3ccc(-n4c(-c5cccnc5N)nc5ccc(-n6cccn6)nc54)cc3CC2F)CC1C(F)F` (single isomer, unassigned) [Example 302, 1-((2*,4*)-4-(((1R,2*)-5-(2-(2-aminopyridin-3-yl)-5-(1H-pyrazol-1-yl)-3H-imidazo[4,5-b]pyridin-3-yl)-2-fluoro-2,3-dihydro-1H-inden-1-yl)amino)-2-(difluoromethyl)piperidin-1-yl)prop-2-en-1-one], for which the IC50 in experiment [1] was 16.9 nM; in experiment [2], 33.3 nM; in experiment [3], 82.1 nM; in experiment [4] (72 h), 129 nM.

For `C=CC(=O)N1CCC[C@H]1C(=O)N[C@H]1CCc2cc(-n3c(-c4cccnc4N)nc4ccc(-n5cccn5)nc43)ccc21` [Example 26, (S)-1-acryloyl-N—((S)-5-(2-(2-aminopyridin-3-yl)-5-(1H-pyrazol-1-yl)-3H-imidazo[4,5-b]pyridin-3-yl)-2,3-dihydro-1H-inden-1-yl)pyrrolidine-2-carboxamide], the IC50 in experiment [1] is above 1000 nM; in experiment [2] it was above 10000 nM; in experiment [3], above 1000 nM; in experiment [4] (Homo sapiens, LAPC4, 72 h), 2050 nM.

Consider `C=CC(=O)N1CCC(N[C@H]2CCc3cc(-n4c(-c5cccnc5N)nc5ccc(-n6cccn6)nc54)ccc32)c2ccccc21` (single isomer, unassigned) [Example 126, 1-[(4*)-4-{[(1S)-5-[2-(2-aminopyridin-3-yl)-5-(pyrazol-1-yl)imidazo[4,5-b]pyridin-3-yl]-2,3-dihydro-1H-inden-1-yl]amino}-3,4-dihydro-2H-quinolin-1-yl]prop-2-en-1-one], for which the IC50 is 671 nM in experiment [1], 8570 nM in experiment [2], above 1000 nM in experiment [3] and 5050 nM in experiment [4] (72 h).

`C=CC(=O)N1CCC(N[C@H]2CCc3cc(-n4c(-c5cccnc5N)nc5ccc(-n6cccn6)nc54)ccc32)C[C@@H]1C` (single isomer, unassigned) [Example 65, 1-((2S,4*)-4-(((S)-5-(2-(2-aminopyridin-3-yl)-5-(1H-pyrazol-1-yl)-3H-imidazo[4,5-b]pyridin-3-yl)-2,3-dihydro-1H-inden-1-yl)amino)-2-methylpiperidin-1-yl)prop-2-en-1-one]: the IC50 in experiment [1] was found to be 58.3 nM; in experiment [2], 397 nM; in experiment [3], 29.6 nM; in experiment [4] (72 h), 203 nM.

As for `C#CC1CC(N[C@H]2CCc3cc(-n4c(-c5cccnc5N)nc5ccc(-n6cccn6)nc54)ccc32)CCN1C(=O)C=C` (single isomer, unassigned) [Example 113, 1-((2*,4*)-4-(((S)-5-(2-(2-aminopyridin-3-yl)-5-(1H-pyrazol-1-yl)-3H-imidazo[4,5-b]pyridin-3-yl)-2,3-dihydro-1H-inden-1-yl)amino)-2-ethynylpiperidin-1-yl)prop-2-en-1-one], the IC50 in experiment [1] turned out to be 8.87 nM; in experiment [2], 50.9 nM; in experiment [3], 7.33 nM; in experiment [4] (72 h) it was 25.3 nM.

As for `C=CC(=O)N1CCC(N[C@H]2CCc3cc(-n4c(-c5cccnc5N)nc5ccc(-n6cccn6)nc54)ccc32)C(C)(F)C1` (single isomer, unassigned) [Example 309, 1-((3*,4*)-4-(((S)-5-(2-(2-aminopyridin-3-yl)-5-(1H-pyrazol-1-yl)-3H-imidazo[4,5-b]pyridin-3-yl)-2,3-dihydro-1H-inden-1-yl)amino)-3-fluoro-3-methylpiperidin-1-yl)prop-2-en-1-one], the IC50 in experiment [1] turned out to be 8.12 nM; in experiment [2], 22.4 nM; in experiment [3], 146 nM; in experiment [4] (72 h) it was 110 nM.

With `C=CC(=O)N1C[C@H]2C[C@@H]1CC2N[C@H]1CCc2cc(-n3c(-c4cccnc4N)nc4ccc(-n5cccn5)nc43)ccc21` (single isomer, unassigned) [Example 137, 1-[(1R,4R,5*)-5-{[(1S)-5-[2-(2-aminopyridin-3-yl)-5-(pyrazol-1-yl)imidazo[4,5-b]pyridin-3-yl]-2,3-dihydro-1H-inden-1-yl]amino}-2-azabicyclo[2.2.1]heptan-2-yl]prop-2-en-1-one], the IC50 in experiment [1] worked out at 71.6 nM; in experiment [2] it was 244 nM; in experiment [3], 14.2 nM; in experiment [4] (72 h) it was 161 nM.

As for `C=CC(=O)NCCc1ccccc1C(=O)N[C@H]1CCc2cc(-n3c(-c4cccnc4N)nc4ccc(-n5cccn5)nc43)ccc21` [Example 268, (S)-2-(2-acrylamidoethyl)-N-(5-(2-(2-aminopyridin-3-yl)-5-(1H-pyrazol-1-yl)-3H-imidazo[4,5-b]pyridin-3-yl)-2,3-dihydro-1H-inden-1-yl)benzamide], the IC50 in experiment [1] was found to be 14.8 nM; in experiment [2], 55.9 nM; in experiment [3], 297 nM; in experiment [4] (Homo sapiens, LAPC4, 72 h), 358 nM.

Turning to `C=CC(=O)N1CCC(N[C@H]2CCc3cc(-n4c(-c5cccnc5N)nc5ccc(-n6cccn6)nc54)ccc32)C(OC)C1` (single isomer, unassigned) [Example 118, 1-((3*,4*)-4-(((S)-5-(2-(2-aminopyridin-3-yl)-5-(1H-pyrazol-1-yl)-3H-imidazo[4,5-b]pyridin-3-yl)-2,3-dihydro-1H-inden-1-yl)amino)-3-methoxypiperidin-1-yl)prop-2-en-1-one], the IC50 in experiment [1] is 42 nM; in experiment [2], 320 nM; in experiment [3], 21.3 nM; in experiment [4] (72 h), 167 nM.

Consider `C=CC(=O)Nc1cccc(F)c1C(=O)N[C@H]1CCc2cc(-n3c(-c4cccnc4N)nc4ccc(-n5cccn5)nc43)ccc21` [Example 6, N-[(1S)-5-[2-(2-aminopyridin-3-yl)-5-(pyrazol-1-yl)imidazo[4,5-b]pyridin-3-yl]-2,3-dihydro-1H-inden-1-yl]-2-fluoro-6-(prop-2-enamido)benzamide], for which the IC50 in experiment [1] was determined as 20.1 nM; in experiment [2], 22 nM; in experiment [3] it was 11.9 nM; in experiment [4] (Homo sapiens, LAPC4, 72 h), 144 nM.
